What all share (assay type): cell-based, human
Test [1] has as its system iPSC-derived cardiomyocytes. As to the kind of experiment: Spontaneous beating rate of cardiomyocytes. Conditions: FIG. 29. The method, then: (§1) The BJRiPS cell line was used to generate preliminary data. BJRiPS cells were differentiated into cardiomyocytes according to previously published protocols (6). After the onset of beating (around day 10), cardiomyocytes were treated with vehicle (DMSO) or different concentrations of rapamycin, Torin1, or Torin2 for different time periods. Beating rate was counted manually. Some cells were harvested after 5-7 days of treatment for flow cytometry analysis. Other cells were harvested after 7 days of treatment for qPCR.

Test [2] deals with BJRiPS-derived cardiomyocytes. As to the kind of experiment: Example 3 preliminary qPCR of maturation genes in BJRiPS-derived cardiomyocytes. Particulars: preliminary data, after differentiation. The method, then: as §1
(In qPCR the cycle at which signal appears reflects the starting amount.)

The test system of test [3] is iPSC-derived cardiomyocytes. As to the kind of experiment: Calcium transients (Fluo-4 AM) analysis with Vala Kinetic Image Cytometer. Conditions: isoproterenol 1 μM, FIG. 14. The procedure:
To perform calcium transients analysis, 50 ul of 10 ug/ml Hoeschst 33258 and 5 μM Fluo-4 AM was added to each well of a 96 well plate and incubated for 10 minutes at 37 degrees. Media was replaced with RPMI without phenol red supplemented with 1:100 Oxyfluor and 10 uM sodium lactate. Isoproterenol (1 μM) was added to the media for isoproterenol experiments. Pacing protocol was 5 seconds delay without pacing followed by 5 seconds pacing at 1 Hz and 5 seconds imaging without pacing. Imaging was performed using the Vala Kinetic Image Cytometer at 30 fps with 33.30 ms exposure at 14.25 intensity. Stimulation pulse was 5 ms with 15V voltage. Data was collected by CyteSeer analysis program.

The test system of test [4] is iPSC-derived cardiomyocytes. As to the kind of experiment: Western analysis of protein expression in iPSC-derived cardiomyocytes. The procedure: (§2) To prepare for differentiation, iPSCs were plated at a density between 20,000 to 80,000 cells (depending on the cell line) per well of a 12-well plate at four days prior to onset of differentiation. Cells were differentiated according to the protocol previously described by Lian et al. with some modifications (FIG. 1A) (1). Basal media was changed from StemFlex to RPMI/B27 on day 0 of differentiation. The GSK3 inhibitor, CHIR99021 (6 μM), was added for 48 hours from day 0 to day 2 of differentiation when cells were approximately 70-80% confluent. The Wnt antagonist IWP4 (5 μM) was added from days 2 to 4 of differentiation. Insulin (10 μg/ml) was added to the media starting on day 7 of differentiation, and media was changed every 2-3 days. In general, higher purity (TNNT2+) cardiomyocytes were observed when beating initiated prior to day 10 of differentiation, therefore only batches with onset of beating between days 7-10 of differentiation were included in this study. Beating cardiomyocytes were treated with Torin1 (200 nM, unless otherwise noted) or vehicle (0.02% dimethylsulfoxide (DMSO)) beginning at ˜2 days after onset of beating for 7 days (media changed with fresh Torin1 or DMSO every 2-3 days), unless otherwise noted. After Torin1 treatment, media was switched back to RPMI/B27/insulin and maintained with media change every 2-3 days until endpoint assay. In a few assays, fatty acids were added in the form of chemically defined lipids (Gibco) diluted 1:1000 simultaneous with Torin1 treatment. In some other assays, fetal bovine serum (10% FBS) was added to cells after completion of Torin treatment for 2-4 days.
Cells were lysed with lysis buffer (1% Triton X, 0.35% Na-deoxycholate, 1 mM EDTA, 1% protease inhibitor cocktail (Sigma), 1% phosphatase inhibitor cocktail 2 (Sigma), 1% phosphatase inhibitor cocktail 3 (Sigma), 1 mM phenylmethylsulfonyl fluoride (PMSF)) and total protein was measured with the Pierce BCA Protein Assay Kit. Samples with equal total protein quantities (prepared in Laemmli Sample Buffer (Bio-Rad)) were loaded into a Mini-Protean TGX Precast Gel (Bio-Rad) and electrophoresed for 1 hour at 100 V before transfer to a PVDF membrane using the Trans-Blot Turbo Transfer System (Bio-Rad). The Precision Plus Protein Dual Color Standards molecular weight ladder was used to estimate molecular weight of detected bands (Bio-Rad). Membranes were blocked with 5% milk or bovine serum albumin then incubated with the primary antibody (Table 2) overnight at 4 degrees C. followed by incubation with the horseradish peroxidase-conjugated secondary antibody (Table 2) for 1 hour at room temperature. The Amersham ECL Western Blotting Detection kit was used to detect the protein signal by chemiluminescence, and band densities were quantified using ImageJ software (NIH).

Test [5] concerns TNNT2+ iPSC-derived cardiomyocytes. Description: Cell cycle analysis by flow cytometry (Hoechst 33342 / pyronin Y) of TNNT2+ cardiomyocytes. The method, then: as §2
Cells were dissociated and 5×10^5 to 1×10^6 cells were used per condition. For cell cycle analysis, 5×10^5 cells per condition were fixed in 70% cold ethanol for at least 2 hours to overnight at −20 degrees C. Cells were stained first with AlexaFluor 647-TNNT2 in Permeabilization Buffer (Thermo) then with Hoechst 33342 (2 μg/ml) and pyronin Y (4 μg/ml) for 20 minutes to distinguish between cells in G0, G1, and S-G2-M phases. For other stains, cells were fixed in eBioscience Intracellular Fixation buffer for 30 minutes followed washing twice in eBioscience Permeabilization Buffer and stained with the appropriate primary antibody (Table 2) in eBioscience FACS Staining buffer for 30-60 minutes. If a secondary antibody was used, cells were incubated with the appropriate secondary antibody (Table 2) for 30-60 minutes. The geometric mean fluorescence intensity (MFI) was quantified for TNNT2 and Kir2.1 antibodies. Data were acquired via a BD LSRII instrument and analyzed using FlowJo software.
Background: A flow cytometer gives signals particle by particle.

Setting [6] is: pifithrin-α 10 μM with Torin1 200 nM, 7 days, FIG. 5B.

Here are results for four compounds from patent US11850266B2, “Cardiomyocytes and compositions and methods for producing the same” (President and Fellows of Harvard College, priority 2019, dated 2023).

Molecules are shown by their SMILES.

Turning to `Nc1ccc(-c2ccc3ncc4ccc(=O)n(-c5cccc(C(F)(F)F)c5)c4c3c2)cn1` [Torin2], the “beating rate of cardiomyocytes” value in test [1] (Torin1 10, 50, 200 nM, Torin2 200 nM, from day 11 for 4-5 days) is reported as “decreased the beating rate”. Moreover, the “beating rates at 1 week” value in test [1] (dose-dependent, BJRiPS-CMs) is listed as “significantly decreased beating rates”. In addition, the “RNA expression of markers of maturation including TNNI3 and KCNJ2” value in test [2] is recorded as “increased RNA expression”.
Regarding `CC(C)NCC(O)c1ccc(O)c(O)c1` (stereo not shown) [isoproterenol], the “calcium peak rise time, peak decay time and FWHM time with isoproterenol stimulation” value in test [3] is recorded as “further decreases”.
For `COc1ccc(C2=N[C@@H](c3ccc(Cl)cc3)[C@@H](c3ccc(Cl)cc3)N2C(=O)N2CCNC(=O)C2)c(OC(C)C)c1` [nutlin-3a], the “p53 and TNNI3 protein expression” value in test [4] (nutlin-3a 10 μM 24 hours, independently of Torin1, FIG. 6C) is “increased p53 and TNNI3 protein expression”. Also, in test [5] (nutlin-3a 10 μM 24 hours, Torin1 200 nM 7 days, or both, BJRiPS-CMs, FIG. 6B), the “percentage of quiescent (G0) TNNT2+ cardiomyocytes versus control” value is recorded as “increased the percentage of quiescent (G0) TNNT2+ cardiomyocytes”. Moreover, the “percentage of TNNT2+ cardiomyocytes in G1 phase versus control” value in test [5] (nutlin-3a 10 μM 24 hours, Torin1 200 nM 7 days, or both, FIG. 6B) is recorded as “decreased the percentage of TNNT2+ cardiomyocytes in G1 phase”.
Turning to `Cc1ccc(C(=O)Cn2c3c(sc2=N)CCCC3)cc1` [pifithrin-α], the “Torin1-induced increase in p53 and TNNI3 protein” value in test [4] (pifithrin-α 10 μM with Torin1 200 nM, 7 days, FIGS. 5C-5D) is “inhibited the Torin1-induced increase in both p53 and TNNI3”. Moreover, in test [5] (setting [6]), the “percentage of cardiomyocytes in the cell cycle (G1, S/G2/M) versus Torin1 alone” value was “increased the percentage of cardiomyocytes in the cell cycle” and the “percentage of quiescent (G0) cardiomyocytes versus Torin1 alone” value is “decreased the percentage of quiescent (G0) cardiomyocytes”.
